How the values were obtained:
[1] = AUC (0 to 24 hrs) in ICR mouse at 10 mg/kg, po; assay type: ADME, organism-based; set-up: dose 10 mg/kg, route po; details: in vivo
[2] = system: Mus musculus; assay: Improvement of recognition memory in NR1 hypofunction mouse assessed as novelty discrimination index at 0.3 mg/kg, po administered once daily for 2 weeks by novel object recognition test (reference value: 51.4 +/- 3.1%); assay type: functional
[3] = system: Mus musculus; assay: Improvement of recognition memory in NR1 hypofunction mouse assessed as novelty discrimination index at 1 mg/kg, po administered once daily for 2 weeks by novel object recognition test (reference value: 51.4 +/- 3.1%); assay type: functional
[4] = target: LSD1/CoREST complex (Homo sapiens, UniProt O60341); assay: Inhibition of recombinant human LSD1 (172 to 852 residues)/His-tagged human CoREST (286 to 482 residues) expressed in Escherichia coli BL21 (DE3) cells using ART(mK)QTARKSTGGKAPRKQLAGGK-Biotin as substrate assessed as increase in H3K4 methylation incubated for 40 mins
[5] = Metabolic stability in mouse liver microsomes assessed as clearance at 1 uM incubated for 15 to 30 mins in presence of NADPH generating system by LC-MS/MS analysis; assay type: ADME, Microsome; details: time 15-30 min, read-out: CLH
[6] = system: GFI1 mRNA; assay: Hematological toxicity in human TF-1a cells assessed as fold increase in GFI1 mRNA expression at 10 uM incubated for 1 day by RT-qPCR analysis relative to control; assay type: cell-based; details: read-out: FC
[7] = target: Lysine-specific histone demethylase 1A (Homo sapiens, UniProt O60341); assay: Inhibition of LSD1 (unknown origin)
[8] = Toxicity in ICR mouse assessed as reduction in platelet count upto 100 mg/kg/day, po administered for 4 days; assay type: organism-based; details: in vivo, 96 h, time 4 day
[9] = Toxicity in ICR mouse assessed as reduction in white blood cell count upto 100 mg/kg/day, po administered for 4 days; assay type: organism-based; details: in vivo, 96 h, time 4 day
[10] = Toxicity in ICR mouse assessed as reduction in red blood cell count upto 100 mg/kg/day, po administered for 4 days; assay type: organism-based; details: in vivo, 96 h, time 4 day

| SMILES | IC50 [4] [µM] | microsomal CLint at 1 µM [5] [µL/min/mg] | fold induction at 24 h, 10 µM [6] | also measured |
| --- | --- | --- | --- | --- |
| O=C(NC1CCOCC1)c1csc([C@@H]2C[C@H]2NCC2CC2)c1 |  |  |  | AUC(0-t) [1]: 1050 ng·h/mL; Activity [2]: 62.7%; Activity [3]: 66% |
| O=C(Nc1ccccc1)c1ccccc1[C@@H]1C[C@H]1NCC1CC1 (racemic) | > 10 |  |  |  |
| O=C(Nc1ccccc1)c1cccc([C@@H]2C[C@H]2NCC2CC2)c1 (racemic) | 0.082 | 101 | 1.97 |  |
| O=C(Nc1cccc([C@@H]2C[C@H]2NCC2CC2)c1)c1ccccc1 (racemic) | 1.8 |  | 3.51 |  |
| O=C(Nc1cccnc1)c1cccc([C@@H]2C[C@H]2NCC2CC2)c1 (racemic) | 0.16 | 47 | 1.53 |  |
| Cc1nnc(NC(=O)c2cc([C@@H]3C[C@H]3NCC3CC3)cs2)s1 (racemic) |  | 15 |  |  |
| Cc1nnc(NC(=O)c2csc([C@@H]3C[C@H]3NCC3CC3)c2)s1 (racemic) |  | 26 |  |  |
| CN(C(=O)c1cccc([C@@H]2C[C@H]2NCC2CC2)c1)c1ccccc1 (racemic) | 0.86 |  | 9.6 |  |
| Cc1nnc(NC(=O)c2cccc([C@@H]3C[C@H]3NCC3CC3)c2)s1 (racemic) |  | 10 |  |  |
| O=C(NC1CCOCC1)c1csc([C@@H]2C[C@H]2NCC2CC2)c1 (racemic) |  | 13 |  |  |
| O=C(Nc1ccccc1)c1ccc([C@@H]2C[C@H]2NCC2CC2)cc1 (racemic) |  |  | 10.6 | IC50 [7]: 0.001 µM |
| O=C(Nc1ccc([C@@H]2C[C@H]2NCC2CC2)cc1)c1ccccc1 (racemic) |  |  | 10.7 | IC50 [7]: 0.0014 µM |
| Cc1nnc(NC(=O)c2cccc([C@@H]3C[C@H]3NCC3CC3)c2)s1 |  |  |  | Activity [8]: Non-Toxic; Activity [9]: Non-Toxic; Activity [10]: Non-Toxic |
| O=C(NC1CCC(F)(F)CC1)c1cccc([C@@H]2C[C@H]2NCC2CC2)c1 (racemic) |  | 26 |  |  |
| O=C(NC1CCOCC1)c1cccc([C@@H]2C[C@H]2NCC2CC2)c1 (racemic) |  | 11 |  |  |

— ChEMBL document CHEMBL5338709, “Design, synthesis, and structure-activity relationship of TAK-418 and its derivatives as a novel series of LSD1 inhibitors with lowered risk of hematological side effects” (Eur J Med Chem, 2022)
